Marks after values point to notes of the source that are not given here.
Columns and labels:
[1] = tested on: sunflower line L5 (BTK 47), susceptible, WT; assay: imazapyr whole plant greenhouse test (Example 2); type: in vivo; settings: for Phytotoxicity Index (0-9) 14 days after treatment / biomass accumulation 14 days after treatment, % of untreated / plant height 14 days after treatment, % of untreated: L5; for height reduction: susceptible line
Procedure: (§1) Seeds were sown in Petri dishes and, after germination, plantlets were transplanted to pots of 10 cm of diameter in a potting media consisting of equal parts of vermiculite, soil and sand. Plants were grown in a greenhouse under natural light conditions supplemented with 400 W sodium halide lamps to provide a 16 hr daylength. Day/night temperatures were 25 and 20 ° C., respectively. At the V2-V4 stage (Schneiter & Miller (1981) Crop Sci. 21:901-903) 10 plants of each genotype were randomly assigned to each treatment consisting of eight imazapyr doses (0, 40, 80, 160, 240, 320, 400 and 480 g ai/ha, corresponding to untreated, 0.5×, 1×, 2×, 3×, 4×, 5× and 6×, respectively), and a zero-time biomass determination. Experiment was arranged as a randomized block design with a full factorial (sunflower line×treatment) arrangement of treatments and 10 replications.
(§2) On the day of herbicide application ten plants of each genotype were cut at the cotyledonal node and dried at 60° C. for 48 hrs for zero-time dried weight determination.
(§3) The remaining plants were maintained for 14 days after imazapyr treatment (DAT) and their height, Phytotoxicity Index (PI) and above ground dry biomass were determined Height was determined as the distance between the cotyledonal node and the apex of each plant. Above ground biomass data from each line were converted to biomass accumulation after application by subtracting the appropriate average zero- time biomass from each sample. Dry biomass data were converted to percentages of the untreated control plants within each line to allow direct comparisons between groups.

[2] = tested on: sunflower genotypes A122T/A205V (mean of H3, H4); assay: imazapyr whole plant greenhouse test (Example 2); type: in vivo; settings: for Phytotoxicity Index (0-9) 14 days after treatment / biomass accumulation 14 days after treatment, % of untreated / plant height 14 days after treatment, % of untreated: A122T/A205V Mean; for height reduction: heterozygotes A122T/A205V, of the untreated controls; for reduction in biomass weight: heterozygous A122T/A205V
Procedure: as §1, §2, §3

[3] = tested on: sunflower line BTI-OL-M1511; assay: tolerance to imidazolinones, greenhouse (Example 8); settings: 160 gr/ha at V4, fourteen days after treatment
[4] = tested on: sunflower line OB712 (high oleic); assay: as above
[5] = tested on: sunflower hybrid H1 (L1*L2), 205/205; assay: field trial, imazapyr at V8 or R1 stage (Example 4); settings: H1 205/205
[6] = tested on: sunflower line BTI-OL-M1709; assay: tolerance to imidazolinones, greenhouse (Example 8); settings: 160 gr/ha at V4, fourteen days after treatment
[7] = tested on: AHAS enzyme of A122T homozygous (GM40); assay: AHAS enzyme activity assay, Set 2; type: biochemical, sunflower; settings: Set 2 (FIG. 14)
Procedure: (§4) Twelve greenhouse grown sunflower plants from each of the lines depicted in Table 21 were bulked and subjected to an AHAS enzyme activity assay via the method of Singh et al. (1988) Anal. Biochem. 171:173-179. Each activity assay was repeated twice. Due to the large number of samples, the experiment was split into two sets (Table 21).
(§5) Young, actively growing leaves, from four week old plantlets, were ground in a mortar and pestle with liquid N2 and extracted with a buffer composed of 100 mM Pyruvate, 200 mM KH2PO4, 20 mM MgCl2, 2 mM thiamine pyrophosphate and […]. Plant extracts were then spun through a 10 mL Zeba™ TM desalt spin column (Pierce #89893) as per the manufacturer's recommendation. The inhibition assay was performed as described by Singh et al. (1988) Anal. Biochem. 171:173-179. Assays were conducted in a 96-well format. Fifty μl of inhibitor was added to each well containing 50 μl of soluble protein extract to give final concentrations of 0.78, 1.56, 3.125, 6.25, 12.5, 25, 50 and 100 μM imazamox or 0.78, 1.56, 3.125, 6.25, 12.5, 25, 50 and 100 μM imazapyr. Zero herbicide controls were also included for each line. Reactions were processed as outlined by Singh et al. (1988) Anal. Biochem. 171:173-179. Absorbance was measured at 530 nm. AHAS activity, expressed as the mean of the absorbance values for each treatment, was presented as a percentage of the mean of the zero-herbicide controls.

[8] = tested on: AHAS enzyme of A205V homozygous (B7imi, IMISUN1); assay: AHAS enzyme activity assay, Set 2; type: biochemical, sunflower; settings: Set 2 (FIG. 14)
Procedure: as §4, §5

[9] = tested on: AHAS enzyme of A122T heterozygous hybrid (cmsBTK47 × R731); assay: AHAS enzyme activity assay, Set 2; type: biochemical, sunflower; settings: Set 2 (FIG. 14)
Procedure: as §4, §5

[10] = tested on: AHAS enzyme of WT line (B7); assay: AHAS enzyme activity assay, Sets 1 and 2; type: biochemical, sunflower; settings: 100 μM
Procedure: as §4
as §5, with “Reactions were processed as outlined by Singh et al. (1988) Anal. Biochem. 171:173-179.” left out

SMILES: CC(C)C1(C)N=C(c2ncccc2C(=O)O)NC1=O (stereo not shown) [imazapyr]
- Phytotoxicity Index (0-9) 14 days after treatment ([1]; dose 0.5 (0.5x, 40 g ai/ha)): 9
- biomass accumulation 14 days after treatment, % of untreated ([1]; dose 0.5 (0.5x, 40 g ai/ha)): 18.3%
- plant height 14 days after treatment, % of untreated ([1]; dose 0.5 (0.5x, 40 g ai/ha)): 20.14%
- Phytotoxicity Index (0-9) 14 days after treatment ([1]; dose 1 (1x, 80 g ai/ha)): 9
- biomass accumulation 14 days after treatment, % of untreated ([1]; dose 1 (1x, 80 g ai/ha)): 15.0%
- plant height 14 days after treatment, % of untreated ([1]; dose 1 (1x, 80 g ai/ha)): 14.58%
- Phytotoxicity Index (0-9) 14 days after treatment ([1]; dose 2 (2x, 160 g ai/ha)): 9
- biomass accumulation 14 days after treatment, % of untreated ([1]; dose 2 (2x, 160 g ai/ha)): 15.0%
- plant height 14 days after treatment, % of untreated ([1]; dose 2 (2x, 160 g ai/ha)): 14.58%
- Phytotoxicity Index (0-9) 14 days after treatment ([1]; dose 3 (3x, 240 g ai/ha)): 9
- biomass accumulation 14 days after treatment, % of untreated ([1]; dose 3 (3x, 240 g ai/ha)): 15.0%
- plant height 14 days after treatment, % of untreated ([1]; dose 3 (3x, 240 g ai/ha)): 14.58%
- Phytotoxicity Index (0-9) 14 days after treatment ([1]; dose 4 (4x, 320 g ai/ha)): 9
- biomass accumulation 14 days after treatment, % of untreated ([1]; dose 4 (4x, 320 g ai/ha)): 15.0%
- plant height 14 days after treatment, % of untreated ([1]; dose 4 (4x, 320 g ai/ha)): 14.58%
- Phytotoxicity Index (0-9) 14 days after treatment ([1]; dose 5 (5x, 400 g ai/ha)): 9
- biomass accumulation 14 days after treatment, % of untreated ([1]; dose 5 (5x, 400 g ai/ha)): 15.0%
- plant height 14 days after treatment, % of untreated ([1]; dose 5 (5x, 400 g ai/ha)): 14.58%
- Phytotoxicity Index (0-9) 14 days after treatment ([1]; dose 6 (6x, 480 g ai/ha)): 9
- biomass accumulation 14 days after treatment, % of untreated ([1]; dose 6 (6x, 480 g ai/ha)): 15.0%
- plant height 14 days after treatment, % of untreated ([1]; dose 6 (6x, 480 g ai/ha)): 14.58%
- height reduction ([1]; 0.5x, 14 DAT): 85%
- height reduction ([1]; from 1x to 6x, of the untreated control plants): approximately 85%
- Phytotoxicity Index (0-9) 14 days after treatment ([2]; dose 0.5 (0.5x, 40 g ai/ha)): 0.5
- biomass accumulation 14 days after treatment, % of untreated ([2]; dose 0.5 (0.5x, 40 g ai/ha)): 99.6%
- plant height 14 days after treatment, % of untreated ([2]; dose 0.5 (0.5x, 40 g ai/ha)): 99.4%
- Phytotoxicity Index (0-9) 14 days after treatment ([2]; dose 1 (1x, 80 g ai/ha)): 0.5
- biomass accumulation 14 days after treatment, % of untreated ([2]; dose 1 (1x, 80 g ai/ha)): 98.9%
- plant height 14 days after treatment, % of untreated ([2]; dose 1 (1x, 80 g ai/ha)): 98.3%
- Phytotoxicity Index (0-9) 14 days after treatment ([2]; dose 2 (2x, 160 g ai/ha)): 0.5
- biomass accumulation 14 days after treatment, % of untreated ([2]; dose 2 (2x, 160 g ai/ha)): 93.2** %
- plant height 14 days after treatment, % of untreated ([2]; dose 2 (2x, 160 g ai/ha)): 98.3%
- Phytotoxicity Index (0-9) 14 days after treatment ([2]; dose 3 (3x, 240 g ai/ha)): 0.5
- biomass accumulation 14 days after treatment, % of untreated ([2]; dose 3 (3x, 240 g ai/ha)): 89.5** %
- plant height 14 days after treatment, % of untreated ([2]; dose 3 (3x, 240 g ai/ha)): 96.9%
- Phytotoxicity Index (0-9) 14 days after treatment ([2]; dose 4 (4x, 320 g ai/ha)): 0.5
- biomass accumulation 14 days after treatment, % of untreated ([2]; dose 4 (4x, 320 g ai/ha)): 86.4** %
- plant height 14 days after treatment, % of untreated ([2]; dose 4 (4x, 320 g ai/ha)): 93.5** %
- Phytotoxicity Index (0-9) 14 days after treatment ([2]; dose 5 (5x, 400 g ai/ha)): 0.6
- biomass accumulation 14 days after treatment, % of untreated ([2]; dose 5 (5x, 400 g ai/ha)): 75.4** %
- plant height 14 days after treatment, % of untreated ([2]; dose 5 (5x, 400 g ai/ha)): 76.3** %
- Phytotoxicity Index (0-9) 14 days after treatment ([2]; dose 6 (6x, 480 g ai/ha)): 1
- biomass accumulation 14 days after treatment, % of untreated ([2]; dose 6 (6x, 480 g ai/ha)): 67.5** %
- plant height 14 days after treatment, % of untreated ([2]; dose 6 (6x, 480 g ai/ha)): 61.8** %
- height reduction ([2]; 0.5x): 0.6%
- height reduction ([2]; 6x): 38.2%
- reduction in biomass weight ([2]; 0.5x): 0.3%
- reduction in biomass weight ([2]; 6x): 33%
- Mean Phytotoxicity Index (0-9) [3]: 0.5
- outcome of the herbicide treatment ([4]; 160 gr/ha at V4): killed
- Mean Phytotoxicity Index (0-9) ([4]; 160 gr/ha at V4, fourteen days after treatment): 9
- Mean Phytotoxicity Index (0-50) ([5]; 160 g ai/ha applied at R1, 14 DAT): 35
- Mean Phytotoxicity Index (0-50) ([5]; 160 g ai/ha applied at R1, 21 DAT): 37.7
- Mean Phytotoxicity Index (0-50) ([5]; 160 g ai/ha applied at V8, 14 DAT): 6
- Mean Phytotoxicity Index (0-50) ([5]; 160 g ai/ha applied at V8, 21 DAT): 3
- Mean Phytotoxicity Index (0-9) [6]: 0.2

SMILES: COCc1cnc(C2=NC(C)(C(C)C)C(=O)N2)c(C(=O)O)c1 (stereo not shown) [imazamox]
- AHAS activity, % of untreated control ([7]; 50 μM): 63%
- AHAS activity, % of untreated control ([7]; 100 μM): 60%
- AHAS activity, % of untreated control ([8]; 50 μM): 30%
- AHAS activity, % of untreated control ([8]; 100 μM): 26%
- AHAS activity, % of untreated control ([9]; 50 μM): 30%
- AHAS activity, % of untreated control ([9]; 100 μM): 30%
- AHAS activity, % of untreated control ([10]; Set 1 (FIG. 13)): 17%
- AHAS activity, % of untreated control ([10]; Set 2 (FIG. 14)): 11%

— patent publication US20150148234A1, “HERBICIDE-RESISTANT SUNFLOWER PLANTS WITH MULTIPLE HERBICIDE RESISTANT ALLELES OF AHASL1 AND METHODS OF USE” (NIDERA S.A., priority 2013, published 2015)
